Data: US20260091050A1, “ADVANTAGEOUS ANTI-HCV COMBINATION THERAPY” (Atea Pharmaceuticals, Inc., priority 2021, published 2026)

Columns and labels:
[1] = Storage stability of Compound 1 forms and amorphous salts at 25° C./60% RH for 14 days (HPLC, observation); conditions: for Stability on storage: 14 days (2 weeks) at 25° C./60% RH
Protocol: This initial characterization was followed by storage at 25° C./60% relative humidity (RH) for 14 days with analysis by HPLC and XRPD after 7 and 14 days. FIG. 4A is the XRPD after 14 days at 25° C./60% (RH).
The samples were then frozen with the solvent removed by lyophilization.
The samples were then subjected to storage at 25° C./60% relative humidity (RH) for 14 days with analysis by HPLC and XRPD after 7 (FIG. 4B) and 14 days (FIG. 5A).

[2] = tested on: replicons containing the NS5B sequences from HCV patient plasma samples (GT1a, 1b, 2a, 2b, 3a-1, 3a-2, 4a and 4d); experiment: Replicons containing NS5B sequences from HCV patient plasma samples (clinical isolates); assay type: cell-based; conditions: GT1, GT3, and GT4 clinical isolates, nucleoside equivalent
HCV = conditions: cited from earlier work
[3] = target: human mitochondrial RNA-dependent RNA polymerase (POLRMT) (Homo sapiens, UniProt O00411); experiment: Incorporation of nucleotide analog triphosphates by human mitochondrial RNA polymerase; assay type: biochemical
Protocol: The incorporation of these analogs by human mitochondrial RNA-dependent RNA polymerase (POLRMT) were determined according to Arnold et al. (Sensitivity of Mitochondrial Transcription and Resistance of RNA Polymerase II Dependent Nuclear Transcription to Antiviral Ribonucleotides. PLoS Pathog., 2012, 8, e1003030).

[4] = Three-part study (Parts C, D, E) of Compound 1-A: overall safety/tolerability and pharmacokinetics; assay type: in vivo, human; conditions: for AUC: human, plasma, oral, Part C
Protocol: (§1) Part C was a randomized, double-blind, placebo-controlled MAD study divided into three cohorts. […] The dose escalation only proceeded following satisfactory review of the data.
HCV-infected patients were treatment-naïve with HCV RNA ≥5 log 10 IU/mL. […] Plasma drug levels were measured using LC-MS/MS.

GT1 HCV [5] = experiment: Single ascending dose study of Compound 1-A in GT1-HCV infected patients (Part B); assay type: in vivo, human; conditions: GT1-HCV infected patients, Compound 1-A 300 mg (second 300 mg line), median (range)
Protocol: Subjects in Part B received a single dose of Compound 1-A in the fasting state. Patients were confined to the clinic from Day −1 to Day 6.
Part B was initiated after the safety (through Day 5) and plasma pharmacokinetic (through 24 h) data review from Cohort 3a in Part A. Available safety data (through Day 5) and pharmacokinetic data (through 24 h) was reviewed for the first cohort in Part B (Cohort 1b) before enrolling subsequent Part B cohorts. Subsequent Part B cohorts were only dosed following review of available safety and pharmacokinetic data from the respective doses in Part A as well as available safety (through Day 5) from the prior Part B cohorts.
Patients infected with HCV were treatment-naïve, non-cirrhotic GT1-infected subjects with a viral load of ≥5 log10 IU/mL.
Baseline was defined as the mean of Day −1 and Day 1 (pre-dose). […] The mean maximum HCV RNA reduction 24 hours post-dose following a single 300 mg dose was 1.7 log10 IU/mL and this compares to a −2 log 10 IU/mL reduction after 1 day of 400 mg of sofosbuvir monotherapy in GT1a HCV-infected subjects. The mean maximum HCV RNA reduction 24 hours post-dose following a single 100 mg dose was 0.8 log10 IU/mL. The mean 10 maximum HCV RNA reduction was 2.2 log10 IU/mL following a single 400 mg dose.

[6] = Single ascending dose study of Compound 1-A in healthy volunteers (Part A); assay type: in vivo, human; conditions: healthy subjects, single dose of Compound 1-A 400 mg, median (range)
Protocol: Compound 1-A was tested in a single ascending dose (SAD) study to measure its safety, tolerability, and pharmacokinetic in healthy subjects (Part A). Part A was a randomized, double-blind, placebo-controlled SAD study. Healthy subjects in Part A received a single dose of Compound 1-A or placebo in the fasting state. Subjects were confined to the clinic from Day −1 to Day 6.
Dosing in each cohort was staggered such that 2 subjects (1 active:1 placebo) were evaluated for 48 hours after dosing before the remainder of the cohort was dosed. Each cohort received Compound 1-A in ascending order. Dosing of sequential cohorts occurred based on review of available safety data (through Day 5) and plasma pharmacokinetic data (through 24 h) of the prior cohort.
As pharmacokinetic and safety data emerged from prior cohorts, doses evaluated in Cohorts 3a-4a were adjusted by increments no more than 100 mg.
Healthy volunteers in the Part A portion of the study were male and female subjects between the ages of 18 and 65. Active and placebo recipients were pooled within each Part A cohort to preserve the study blind.

GT1, GT2, or GT3 HCV = experiment: 600 mg QD for 7 days in Child-Pugh A cirrhotic patients with GT1, GT2 or GT3 HCV (Part E); assay type: in vivo, human
Protocol: Doses were administered as the Compound 1-A salt base. The free base Compound 1 equivalent is often given in parenthesis. […]
(§2) HCV-infected patients were treatment-naïve with HCV RNA ≥5 log 10 IU/mL. HCV RNA was quantified using COBAS® AmpliPrep TaqMAN® v2.0 with LLQ of 15 IU/mL. Plasma drug levels were measured using LC-MS/MS. […] Mean ages of enrolled subjects were 44, 39, and 56 years in the non-cirrhotic GT1b 600 mg dose cohort, non-cirrhotic GT3 cohort, and the cirrhotic cohort, respectively.

GT1 HCV [7] = experiment: Multiple dose study, 7 days QD, non-cirrhotic GT1 HCV-infected patients (Part C); assay type: in vivo, human
Protocol: (§3) Doses were administered as the Compound 1-A salt base. The free base Compound 1 equivalent is often given in parenthesis.
as §1, §2

GT3 HCV = experiment: 600 mg QD for 7 days in non-cirrhotic GT3 HCV-infected patients (Part D); assay type: in vivo, human; conditions: 600 mg QD, Part D
Protocol: as §3, §1, §2

[8] = Plasma profiles of Compound 1 and metabolite 1-7 after single oral doses of Compound 1-A, cynomolgus monkeys; assay type: in vivo; conditions: monkey
[9] = Plasma profiles of Compound 1 and metabolite 1-7 after single oral dose of Compound 1-A, Sprague-Dawley rats; assay type: in vivo; conditions: rat, single oral dose of Compound 1-A 500 mg/kg (0.5% CMC, 0.5% Tween 80 in water)
[10] = incorporation by human mitochondrial RNA polymerase
[11] = single oral dose of Compound 1-A 30 mg/kg (powder in capsules)
[12] = single oral dose of Compound 1-A 100 mg/kg (powder in capsules)
[13] = single oral dose of Compound 1-A 300 mg/kg (powder in capsules)

human mitochondrial RNA-dependent RNA polymerase (POLRMT), sequence (O00411 42-1230): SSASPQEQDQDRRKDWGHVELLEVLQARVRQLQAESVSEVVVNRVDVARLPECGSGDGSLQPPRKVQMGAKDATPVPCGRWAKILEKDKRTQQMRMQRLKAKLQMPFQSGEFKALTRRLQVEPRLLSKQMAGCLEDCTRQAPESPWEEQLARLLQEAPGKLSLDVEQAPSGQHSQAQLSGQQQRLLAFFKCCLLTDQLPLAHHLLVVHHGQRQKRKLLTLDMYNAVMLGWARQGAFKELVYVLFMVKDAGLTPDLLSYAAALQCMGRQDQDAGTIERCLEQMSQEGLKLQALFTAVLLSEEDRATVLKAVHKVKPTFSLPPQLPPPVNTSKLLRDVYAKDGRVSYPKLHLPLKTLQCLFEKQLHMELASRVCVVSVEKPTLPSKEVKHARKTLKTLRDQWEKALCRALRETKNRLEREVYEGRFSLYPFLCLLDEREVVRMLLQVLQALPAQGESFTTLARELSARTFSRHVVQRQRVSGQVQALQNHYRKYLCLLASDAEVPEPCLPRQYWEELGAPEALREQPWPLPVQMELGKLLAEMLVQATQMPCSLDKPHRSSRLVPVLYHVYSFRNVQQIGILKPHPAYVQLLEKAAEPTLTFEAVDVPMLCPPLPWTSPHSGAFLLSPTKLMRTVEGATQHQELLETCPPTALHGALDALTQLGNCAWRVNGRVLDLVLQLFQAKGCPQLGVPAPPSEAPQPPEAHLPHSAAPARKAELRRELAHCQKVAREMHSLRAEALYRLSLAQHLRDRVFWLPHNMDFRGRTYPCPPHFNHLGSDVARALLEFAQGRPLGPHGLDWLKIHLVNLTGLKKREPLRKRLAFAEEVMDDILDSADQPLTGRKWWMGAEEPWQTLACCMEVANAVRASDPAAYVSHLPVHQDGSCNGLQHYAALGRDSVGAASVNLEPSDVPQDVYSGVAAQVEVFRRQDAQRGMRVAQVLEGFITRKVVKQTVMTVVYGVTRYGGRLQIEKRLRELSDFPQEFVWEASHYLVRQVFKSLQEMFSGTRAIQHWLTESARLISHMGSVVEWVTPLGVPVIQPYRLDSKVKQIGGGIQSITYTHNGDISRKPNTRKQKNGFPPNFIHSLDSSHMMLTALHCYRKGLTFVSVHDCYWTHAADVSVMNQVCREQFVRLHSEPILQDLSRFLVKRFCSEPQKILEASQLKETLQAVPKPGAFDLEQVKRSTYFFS

SMILES: CNc1nc(N)nc2c1ncn2[C@@H]1O[C@H](CO[P@@](=O)(N[C@@H](C)C(=O)OC(C)C)Oc2ccccc2)[C@@H](O)[C@@]1(C)F [Sample 1-2, isopropyl((S)-(((2R,3R,4R,5R)-5-(2-amino-6-(methylamino)-9H-purin-9-yl)-4-fluoro-3-hydroxy-4-methyltetrahydrofuran-2-yl)methoxy)(phenoxy)phosphoryl)-L-alaninate]
- HPLC ([1]; 0 days at 25° C./60% RH): 99.1
- Observation ([1]; 0 days at 25° C./60% RH): White solid
- HPLC ([1]; 7 days at 25° C./60% RH): 99.2
- Observation ([1]; 7 days at 25° C./60% RH): White solid
- Stability on storage [1]: stable
- HPLC ([1]; 14 days at 25° C./60% RH): 99.0
- Observation ([1]; 14 days at 25° C./60% RH): White solid

SMILES: CC(C)OC(=O)[C@H](C)N[P@](=O)(OC[C@H]1O[C@@H](n2ccc(=O)[nH]c2=O)[C@](C)(F)[C@@H]1O)Oc1ccccc1 [sofosbuvir]
- EC95 [2]: greater than 100 ng/mL
- HCV RNA reduction (HCV; after 1 day of 400 mg monotherapy, GT1a HCV-infected subjects): −2 log 10 IU/mL
- steady-state trough concentration (HCV; similar dosage form (400 mg QD)): approximately 100 ng/mL

SMILES: C[C@@]1(O)[C@H](O)[C@@H](COP(=O)(O)OP(=O)(O)OP(=O)(O)O)O[C@H]1n1cnc2c(=O)[nH]c(N)nc21 [2′-C-methyl GTP]
- Kpol [3, 10]: 0.051 s⁻¹

SMILES: CNc1nc(N)nc2c1ncn2[C@@H]1O[C@H](CO[P@@](=O)(N[C@@H](C)C(=O)OC(C)C)Oc2ccccc2)[C@@H](O)[C@@]1(C)F [Sample 1-1, isopropyl((S)-(((2R,3R,4R,5R)-5-(2-amino-6-(methylamino)-9H-purin-9-yl)-4-fluoro-3-hydroxy-4-methyltetrahydrofuran-2-yl)methoxy)(phenoxy)phosphoryl)-L-alaninate]
- HPLC ([1]; 0 days at 25° C./60% RH): 98.6
- Observation ([1]; 0 days at 25° C./60% RH): White solid
- HPLC ([1]; 7 days at 25° C./60% RH): 98.7
- Observation ([1]; 7 days at 25° C./60% RH): White solid
- Stability on storage [1]: stable
- HPLC ([1]; 14 days at 25° C./60% RH): 98.5
- Observation ([1]; 14 days at 25° C./60% RH): White solid

SMILES: CNc1nc(N)nc2c1ncn2[C@@H]1O[C@H](CO[P@@](=O)(N[C@@H](C)C(=O)OC(C)C)Oc2ccccc2)[C@@H](O)[C@@]1(C)F [Sample 1-9]
- HPLC ([1]; 0 days at 25° C./60% RH): 98.7
- Observation ([1]; 0 days at 25° C./60% RH): White solid
- HPLC ([1]; 7 days at 25° C./60% RH): 98.1
- Observation ([1]; 7 days at 25° C./60% RH): White solid
- Stability on storage [1]: physically and chemically stable
- HPLC ([1]; 14 days at 25° C./60% RH): 96.4
- Observation ([1]; 14 days at 25° C./60% RH): White solid

SMILES: CNc1nc(N)nc2c1ncn2[C@@H]1O[C@H](CO[P@@](=O)(N[C@@H](C)C(=O)OC(C)C)Oc2ccccc2)[C@@H](O)[C@@]1(C)F [Sample 1-3]
- HPLC ([1]; 0 days at 25° C./60% RH): 99.7
- Observation ([1]; 0 days at 25° C./60% RH): White solid
- HPLC ([1]; 7 days at 25° C./60% RH): 99.6
- Observation ([1]; 7 days at 25° C./60% RH): White solid
- HPLC ([1]; 14 days at 25° C./60% RH): 99.4
- Observation ([1]; 14 days at 25° C./60% RH): White solid

SMILES: C[C@@]1(F)[C@H](O)[C@@H](CO)O[C@H]1n1cnc2c(=O)[nH]c(N)nc21 [metabolite 1-7, 2-amino-9-((2R,3R,4R,5R)-3-fluoro-4-hydroxy-5-(hydroxymethyl)-3-methyltetrahydrofuran-2-yl)-1,9-dihydro-6H-purin-6-one]
- T1/2 SS ([4]; Part E, 600 mg/d (n=6), steady state): 24.4 ± 9.81 h
- AUC ([4]; 150 mg/d, AUC Day 1 (AUC, for Metabolite 1-7), 150 mg/d (n=6), Day 1): 800 ± 213 ng·h/mL
- AUC ([4]; 150 mg/d, AUC SS (AUC, for Metabolite 1-7), 150 mg/d (n=6), steady state): 962 ± 409 ng·h/mL
- AUC ([4]; 300 mg/d, AUC Day 1 (AUC, for Metabolite 1-7), 300 mg/d (n=6), Day 1): 1410 ± 220 ng·h/mL
- AUC ([4]; 300 mg/d, AUC SS (AUC, for Metabolite 1-7), 300 mg/d (n=6), steady state): 1830 ± 453 ng·h/mL
- food effect on total and trough exposure ([4]; in vivo): No food effect
- Tmax (GT1 HCV [5]): 4.0 (3.0-6.0) h
- Tmax [6]: 6.0 (4.0-8.0) h
- subjects achieving HCV RNA below the lower limit of quantitation (GT1, GT2, or GT3 HCV; 600 mg QD, Part E): 17%
- day on which steady state of concentrations was reached (GT1, GT2, or GT3 HCV; subjects with cirrhosis): 5 days
- subjects achieving HCV RNA <LOQ (GT1 HCV [7]; 600 mg QD, non-cirrhotic GT1b, LOQ=15 IU/mL): 50%
- time of peak formation after dosing (GT1 HCV [7]; Part C): approximately 6 hours
- subjects achieving HCV RNA below the lower limit of quantitation (GT3 HCV): 17%
- AUC0-last [8, 11]: 1620 ng·h/mL
- Cmax [8, 11]: 42.5 ng/mL
- T1/2 [8, 11]: 11.5 h
- Tmax [8, 11]: 12 to 24 h
- AUC0-last [8, 12]: 3030 ng·h/mL
- Cmax [8, 12]: 131 ng/mL
- T1/2 [8, 12]: 15.0 h
- Tmax [8, 12]: 4 h
- AUC0-last [8, 13]: 3660 ng·h/mL
- Cmax [8, 13]: 93.6 ng/mL
- T1/2 [8, 13]: 18.8 h
- Tmax [8, 13]: 4 to 24 h
- AUC0-last [9]: 9640 ng·h/mL
- Cmax [9]: 541 ng/mL
- T1/2 [9]: 15.3 h
- Tmax [9]: 6 to 8 h

SMILES: C[C@@]1(F)[C@H](O)[C@@H](COP(=O)(O)OP(=O)(O)OP(=O)(O)O)O[C@H]1n1cnc2c(=O)[nH]c(N)nc21 [metabolite 1-6]
- incorporation by human mitochondrial RNA polymerase [3]: poorly incorporated
- Relative Efficiency ([3]; (Kpol/Kd, app)analog nucleotide/(Kpol/Kd, app)natural nucleotide): 2.2 × 10^−6
- Kpol [3, 10]: 0.0017 s⁻¹
- Kpol/Kd, app [3, 10]: 8.3 M⁻¹ s⁻¹
- Kd ([3]; incorporation by human mitochondrial RNA polymerase, read-out: Kd, app): 204 µM

SMILES: C[C@@]1(F)[C@H](O)C(CO[P@@](=O)(O)OP(=O)(O)OP(=O)(O)O)O[C@H]1n1ccc(=O)[nH]c1=O (stereo partly drawn) [2′-deoxy-2′-F-2′-C-methyl UTP]
- Kpol [3, 10]: 0.00034 s⁻¹
